Laboratory results: EP1276895B1, “METHOD FOR THE IDENTIFICATION OF ACTIVE SITE PROTEASE INACTIVATORS” (THE UNIVERSITY OF GEORGIA RESEARCH FOUNDATION, INC., priority 2000, dated 2001)
Starred links: 1 amine or outer side, 2 acyl side, 3 side chain; linkers in the order of their positions; H or OH if unused. Residues, ends and D or L forms follow the SMILES beside them. *: point of attachment. AFC = O=c1cc(C(F)(F)F)c2ccc(N*)cc2o1; Suc = O=C(CCC(=O)[*:2])[*:1]; Cbz = O=C(OCc1ccccc1)*; Boc = CC(C)(C)OC(=O)*

Columns and labels:
Taenia solium crude mix [1] = assay: Substrate cleavage screen of AFC-linked synthetic substrates (Step II), crude mix; format: biochemical; settings: 0.4 M Citrate pH 4.9, 18 h, 37 °C
Description: In order to prepare the Taenia solium "crude mix", dry frozen Taenia solium cysts were obtained from 6-12 month old cysticercotic pigs from villages in an endemic area of porcine cysticercosis in Mexico. Metacestodes were carefully dissected from the parasitized tissues, washed three times with PBS, and lyophilized. Parasite extracts were prepared by suspending 0.1 grams of dry frozen cysts in 10 ml of extraction buffer (0.4 M citrate, pH 4.9). The cysts were vortexed for three five-minute intervals with intermittent incubations (5 min) at 4 °C. Particulate material was removed by centrifugation (20,000 x g, 120 min) and the resulting soluble fraction filtered ([…]). In assay buffers, the detectable amount of the crude mix, as described above, was employed and incubated with the target substrates.
(§1) Vmax was calculated for the cleavage of substrates by the purified target protease and Vmax was calculated for substrates cleaved by the crude mix protease using conventional kinetic modeling calculations already described in the art.
Similar steps were employed here as they are for the purified protease. As will be noted, similar conclusions were noted on the identification of the protease inhibitor on the crude mix, and the identical hypothesis was derived (Fig. 4b). It is notable that the most cleaved substrates were Z-FR-AFC, Z-FAR-AFC, Z-AAK-AFC, AP-AFC, Z-VLR-AFC, respectively. This cleavage pattern, noted along with others, was highly similar to the cleavage pattern due to the purified protease. […] Moreover, non-cleaved substrates were also highly similar, although there were subtle variations in relative cleavage for the non-cleaved substrates. However, this would be expected as fluorometric readings will tend to have subtle variation at lower readings due to background effects.

[2] = system: purified Taenia solium cysteine protease; assay: Substrate cleavage screen of AFC-linked synthetic substrates (Step II), purified protease; format: biochemical; settings: 1 ug purified protease, 1 ug substrate, Citrate pH 4.9 with 0.01 M cysteine, 18 h, 37 °C
Description: In this step, the most efficacious substrate for detection of the cysteine protease (high Kcat substrate) was determined in vitro along with those substrates which were not well cleaved (low kcat substrates). From this point forth, the following conditions refer to all assays: "assay buffer" refers to 0.4 M Citrate, pH 4.9 (the pH optima of the protease). Incubation time was 18 hours at 37°C. These conditions were determined by our preliminary data to be best for kinetic evaluation of the protease. […] The experiments were conducted in […] Borosilicate mini-culture tubes (Fisher Scientific), and a fluorometer (Turner) was employed for detection of AFC cleavage.
Approximately 1 ug (or a proteolytically detectable amount) of the purified target cysteine protease was incubated individually, with 1 ug of each of the available substrates in 500 uL of assay buffer. During this setup, the substrate was pre-incubated in the assay buffer for a short period of time (20 minutes) in order to reach an equilibrated status before the addition of the protease. Cleavage assessments were based upon the property of the protease to cleave synthetic peptide substrates linked at the C-terminus to 7-Amino-4-Trifluoromethyl Coumarin (AFC) as previously described. AFC linked tripeptides, dipeptides, and monopeptides, (with a variety of permutations at P3-P1) were available from Enzyme Systems Products (Livermore, CA), and were used as the source of the subset. Following incubation of enzyme preparations overnight (18 h, 37 °C) with peptide in assay buffer (Citrate, pH 4.9, supplemented with 0.01 M cysteine), free AFC concentrations were measured fluorometrically (excitation 405 nm, emission 505 nm). The proteolytic cleavage released the AFC group, which was measurable as a free molecule by a standard fluorometer and converted into molar quantities, based upon a previously established standard curve. The simplicity of AFC detection by the fluorometer was a key factor which quickened and simplified the procedures.
In the assay, 1 ug of the purified Taenia cysteine protease was added to a saturating amount of Z-Phe-Arg-AFC (4X10^-5 M) in assay buffer. The experiment was conducted in triplicate and repeated at least 5 times until we were certain that variability in AFC cleavage was not statistically significant.
as §1

[3] = system: purified cysteine protease of Taenia solium; assay: Human IgG degradation inhibition test, western blot (Step IV), purified enzyme; format: biochemical; settings: 18 hrs, 37°C, E 64 10^-6 M, vehicle 10^-3 M
Description: (§2) To conduct this assessment, a western blot was performed. IgG digestion was detected by incubating 20 ul of T. solium purified enzyme or T. so/ium extract with 1 ug of human IgG (Sigma, St. Louis) in a final volume of 100 ul of assay buffer. Exogenous thiol activation was assessed by incubating the assay in the presence or absence of cysteine. The catalytic class of the IgG protease was determined by pre-incubating the following proteinase inhibitors at their active concentrations, with the enzyme: E 64 (10^-6 M, cysteine proteinases), phenylmethylsulfonyl fluoride (PMSF) (10^-3 M, serine proteinases), pepstatin A (10^-6 M, aspartic proteinases), and 1,10 phenanthroline (10^-3 M, metalloproteinases), and the vehicle, Mu-Leu-Tyr-AFC (10^-3 M). After addition of IgG, the assay was incubated overnight (37°C, 18 hrs). Subsequently, 100 ul of the mixture was boiled in sodium dodecyl sulfate polyacrylamide gel electrophoresis (SDS-PAGE) sample buffer with 2% 2-mercaptoethanol, separated by 12.5% SDS-PAGE, and blotted onto a polyvinylidene difluoride membrane. Tris buffered saline containing 0.1% bovine serum albumin and 0.05% Tween 20 (TBS-BSA) was used to block nonspecific binding. […]

crude mix = assay: Human IgG degradation inhibition test, western blot (Step IV), crude mix; format: biochemical, Taenia solium; settings: crude mix compared with purified proteinase; data not shown
Description: as §2

[4] = system: purified Taenia solium cysteine protease; assay: Competitor assay of low Vmax substrates (vehicles) against high Vmax substrate cocktails (Step III), purified protease; format: biochemical; settings: robustness of inhibition
[5] = system: purified Taenia solium cysteine protease; assay: as above; format: biochemical; settings: purified protease; for V Value: V = P * M, P = inhibition with first (1.4%) cocktail, M = inhibition with last (7.4%) cocktail, vehicle 8X10^-6M, each cocktail substrate 1X10^-6 M
Description: (We employed "Vmax" here although Kcat could also be used). Due to the lower number of substrates, a percentage was not chosen for the "BOTTOM %" " substrates. Alternately, all substrates which were not cleaved as determined by a value of 10 uM/hr or less, were chosen to be tested in this step for competitive ability. From this point forth, the term "vehicle" will represent low Vmax substrates that were capable of inhibiting cleavage of the percent cocktails. In this instance, we tested for "vehicles" which inhibited cleavage of the TOP 1.4% cocktail (they were delivered into the active site). Based upon our results from Step II, the top 1.4% cocktail was composed of Z-Phe-Arg-AFC, the highest cleaved substrate.
(§3) The experiment began with a competitor test between the noncleaved low Vmax substrates and the highest Vmax substrate, Z-Phe-Arg-AFC. Concentrations were varied between the low Vmax substrate and Z-Phe-Arg-AFC, as described above under "refinement of assay" until a relative inhibition profile was obtained.
The mixture was allowed to equilibrate for a period of 30 minutes. Finally, active purified enzyme was added to the tubes at a concentration which was always 50 times less than the concentration of the high and low Vmax substrates, in order to insure saturation conditions. This concentration varied from purification to purification and the amount added depended upon the yield and specific activity of the purified protease.
Positive controls were set up similarly as described for test controls, except that solvent was added in substitution for the low Vmax substrate (in a volume equal to the low Vmax volume addition). All of the substrates could be dissolved in dimethylsulfoxide (DMSO), and therefore, this was the solvent of choice. Negative controls were set up by adding the low Vmax and the high Vmax substrate in a tube without the protease. All potential non-proteolytic induced liberation of AFC was therefore controlled for in this tube (a feature which also insured stability of the AFC substrates, since these substrates will freely liberate AFC when unstable). A tube set will be established for this negative control.
All controls were set up in triplicate, and experiments repeated a minimum of five times. The assays were incubated at 37°C, for 18 hours overnight.
(§4) Percent inhibition was calculated as: %Inhibition =; ((AFC positive for"Y"-AFC negative for"Y")-(AFC test-AFC negative for"Y")X100)/(AFC positive for "Y"-AFC negative for "Y") [formula]
A 2.9% cocktail of the high Vmax substrates was made. This was composed of Z-FR-AFC and the second most cleaved substrate, Z-FAR-AFC. The vehicles promoted from the initial screenings above were again tested for competitive inhibition ability with the new cocktails. Their concentrations were set identically to those which were "fixed" in the previous protocols. In other words, 8X10^-6M of the vehicle was added to the culture tube with 1X10^-6 M of Z-FR-AFC and 1X10^-6 M of Z-FAR-AFC. Active protease was added last at a concentration that was 50 times less than the concentration of the high Vmax substrate (to ensure saturating conditions).
In similar experimental fashion, a 4.4%, 5.9%, and 7.4% cocktail were tested with each of the promising vehicles. Each percentage point represented an increase by one substrate. Each of the individual components in the cocktail were added at 1X10^-6 M each, to 8X10^-6 M of the vehicle. The composition of the cocktails was as follows: 4.4% cocktail: Z-FR-AFC, Z-FAR-AFC, and Z-AAK-AFC (third highest cleaved substrate); 5.9% cocktail: Z-FR-AFC, Z-FAR-AFC, Z-AAK-AFC, and AP-AFC (fourth highest cleaved substrate); 7.4% cocktail: […], Z-FAR-AFC, Z-AAK-AFC, AP-AFC, and Z-VLR-AFC. We stopped at this number of substrates in the cocktail, since confidence was obtained that inhibitory potential of vehicles could be "diluted out."
Finally, a manageable set of candidate vehicles was determined. […]

Taenia solium crude mix [6] = assay: Competitor assay of vehicles against high Vmax substrate cocktails (Step III), crude mix; format: biochemical
Description: Step III for a crude mix proceeds it would for a purified protease, except that Vm is used instead of kcat.
as §3, §4
One of the most intriguing findings in this experiment was that a highly similar inhibition pattern for the competitor assay was noted when the crude mix was employed as the source of the target protease. Although there were some variations in the effects of inhibitor dilution, the most highly ranked vehicles remained inhibitory consistently in comparison to the profile with the target protease. The relative profile and composition of the top tiers of vehicles was identical. Z-LLL-AFC, Z-LLY-AFC, Mu-LY-AFC, Boc-VPR-AFC, Z-SY-AFC, Z-RR-AFC, Z-FLF-AFC, Z-LGR-AFC consistently presented as the top eight vehicles (Fig. 5b), respectively, based upon their V values (Table 2). […] It was notable that the three vehicles had very similar V values. […] As was mentioned, this vehicle along with Z-LLL-AFC and Z-LLY-AFC, were consistently the most inhibitory vehicles. The V values of the most inhibitory vehicle series are shown below in Table 2. Again, a clear break between the first and second tier vehicles could be noted with the V value. Table 2. Vehicles and V value rankings.

CC(C)C[C@H](NC(=O)[C@@H](NC(=O)OCc1ccccc1)C(C)C)C(=O)N[C@@H](CCCNC(=N)N)C(=O)Nc1ccc2c(C(F)(F)F)cc(=O)oc2c1 [Z-VLR-AFC] (Cbz-Val-Leu-Arg-{AFC})
cleavage of AFC-linked substrate (Vmax) (Taenia solium crude mix [1]): most cleaved

N=C(N)NCCC[C@H](NC(=O)[C@H](Cc1ccccc1)NC(=O)OCc1ccccc1)C(=O)Nc1ccc2c(C(F)(F)F)cc(=O)oc2c1 [Z-FR-AFC, Z-Phe-Arg-AFC, reference compound] (Cbz-Phe-Arg-{AFC})
cleavage of AFC-linked substrate (Vmax) [2]: cleaved
cleavage of AFC-linked substrate (Vmax) ([2]; listed as Z-Phe-Arg-AFC): highest Vmax
cleavage of AFC-linked substrate (Vmax) (Taenia solium crude mix [1]): most cleaved

C[C@H](NC(=O)[C@H](Cc1ccccc1)NC(=O)OCc1ccccc1)C(=O)N[C@@H](CCCNC(=N)N)C(=O)Nc1ccc2c(C(F)(F)F)cc(=O)oc2c1 [Z-FAR-AFC] (Cbz-Phe-Ala-Arg-{AFC})
cleavage of AFC-linked substrate (Vmax) (Taenia solium crude mix [1]): most cleaved

CC(C)C[C@H](NC(=O)CCC(=O)O)C(=O)N[C@@H](Cc1ccc(O)cc1)C(=O)Nc1ccc2c(C(F)(F)F)cc(=O)oc2c1 [Suc-Leu-Tyr-AFC] (Suc-Leu-Tyr-{AFC})
inhibition of cleavage of human IgG [3]: inhibit
concentration required for inhibition of IgG cleavage (crude mix): greater

CC(C)[C@H](NC(=O)OC(C)(C)C)C(=O)N1CCC[C@H]1C(=O)N[C@@H](CCCNC(=N)N)C(=O)Nc1ccc2c(C(F)(F)F)cc(=O)oc2c1 [B-VPR-AFC, Boc-Val-Pro-Arg-AFC] (Boc-Val-Pro-Arg-{AFC})
percentage drop in inhibition between the 1.4% and the 7.4% cocktail [4]: 38%
cleavage of AFC-linked substrate (Vmax) [2]: noncleavable
inhibition with the final cocktail (7.4%) ([5]; 7.4% cocktail = Z-FR-AFC + Z-FAR-AFC + Z-AAK-AFC + AP-AFC + Z-VLR-AFC, 1X10^-6 M each, vehicle 8X10^-6 M): less than 20%
V Value [5]: 0.116
V Value ([5]; listed as B-VPR-AC): 0.120
Tier (Taenia solium crude mix [6]): 2 (The second tier was composed of those vehicles, which produced inhibition between 20-50% inhibition when in the presence of the 1.4% cocktail)
V Value (Taenia solium crude mix [6]; V = P * M): 0.12

CC(C)CC(NC(=O)C1OC1C(=O)O)C(=O)NCCCCNC(=N)N (stereo not shown) [E64, reference compound]
inhibition of cleavage of human IgG [3]: Inhibition was noted

C[C@H](NC(=O)OCc1ccccc1)C(=O)N[C@@H](C)C(=O)N[C@@H](CCCCN)C(=O)Nc1ccc2c(C(F)(F)F)cc(=O)oc2c1 [Z-AAK-AFC] (Cbz-Ala-Ala-Lys-{AFC})
cleavage of AFC-linked substrate (Vmax) (Taenia solium crude mix [1]): most cleaved
